Source: patent US11841369B2, “Method for improving quality of therapeutic cell through real-time glutathione measurement” (CELL2IN, INC., priority 2017, dated 2023)

Tests used:
[1] = system: hUC-MSCs; assay: FreSH-Tracer-based glutathione regeneration capacity (GRC) after diamide; design: species or system human; details: hUC-MSCs subcultured three times with AA2G 250 μg/mL, low concentration of diamide, vs naive cell group
Method: In addition, GH is calculated as the coefficient of variation or robust coefficient of variation of cellular FR. GRC refers to a value obtained by real-time monitoring of FR after living cells are treated with an oxidizing agent, as calculated by dividing a value obtained by subtracting AUC of a group treated with 0.1-100 mM N-ethylmaleimide (NEM) from FR AUC of an oxidizing agent (diamide, H2O2, etc.)-treated group by a value obtained by subtracting the AUC of NEM-treated group from AUC of the untreated control, and multiplying the resulting value by 100. The FR of the NEM-treated group is a value for increasing the sensitivity of a GRC value by treating it as the blank value of the FR of the cells of interest. […] To remove the MitoFreSH-Tracer from the medium before measurement, the medium was exchanged with fresh 10 mM HEPES-containing HBSS, and a fluorescence image was obtained using a confocal imaging system, Operetta. By comparing GSH levels quantified from control cells not treated with RSL3 or control cells before treated with RSL3, the distribution of GSH expression-changed cells was calculated. Based on the point where the distribution histogram is divided into two peaks, the cells were divided into GSH^High cells (right peak) and GSH^Low cells (left peak), and then a ratio of corresponding cells was expressed as a percentage (%). […]

[2] = system: hUC-MSCs; assay: CFU-F assay of hUC-MSCs; format: cell-based, human; details: 125 or 250 μg/mL AA2G, three days
Method: (§1) The inventors observed an effect of the material on stem cells by treating each stem cells with a material for enhancing a glutathione evaluation parameter. When hUC-MSCs were subcultured in a L-AA2G-containing medium, CFU-F, migration capacity, and an anti-inflammatory effect were observed. A CFU-F assay (n=3) was performed by treating hUC-MSCs with 125 or 250 μg/mL of AA2G for three days. As shown in FIGS. 16A and 16B, it was confirmed that, when AA2G was treated, CFU-F increased. In addition, as hUC-MSCs were treated with 125 or 250 μg/mL of AA2G for three days, PDGF-AA-induced migration capacity (n=3) was analyzed. As shown in FIGS. 17A and 17B, it was confirmed that the migration capacity was increased by AA2G treatment. In addition, the reduction in T cell proliferation, a reduction in T cell differentiation, and the promotion of Treg cell differentiation were observed by treating hUC-MSCs with 125 or 250 μg/mL of AA2G for three days. […] Meanwhile, hUC-MSCs were cultured with a glutathione precursor such as γ-glutamyl cysteine (GGC, 0.1, 0.25, and 0.5 mM). A CFU-F assay (n=3) was performed by treating hUC-MSCs with each concentration of GGC for 2 hours. […] In addition, SDF1α and PDGF-AA-induced migration capacities (n=3) were analyzed for hUC-MSCs without treatment with GGC, and SDF1α- and PDGF-AA-induced migration abilities (n=3) were analyzed by treating hUC-MSCs with the increasing concentrations of GGC. STI571 was used as a PDGFR kinase inhibitor. As shown in FIGS. 20A to 20C, it was confirmed that, according to an increase in GGC treatment concentration, SDF1α- and PDGF-AA-induced migration capacities were enhanced. A CFU-F assay (n=3) was performed by treating hUC-MSCs with 0.2, 1, 2, and 4 μM ferrostatin-1 and 0.1, 0.5, 1, and 2 μM liproxstatin-1 for 24 hours.

[3] = system: hUC-MSCs; assay: SDF1α- and PDGF-AA-induced migration capacity of hUC-MSCs; format: cell-based, human; details: 125 or 250 μg/mL AA2G, three days
Method: as §1, with “enhanced.” for “enhanced. A CFU-F assay (n=3) was performed by treating hUC-MSCs with 0.2, 1, 2, and 4 μM ferrostatin-1 and 0.1, 0.5, 1, and 2 μM liproxstatin-1 for 24 hours.”

O=C1O[C@H]([C@@H](O)CO)C(O)=C1O[C@H]1O[C@H](CO)[C@@H](O)[C@H](O)[C@H]1O [AA2G, ascorbic acid 2-glucoside]
increased: FreSH-Tracer-based GRC [1] | CFU-F [2] | PDGF-AA-induced migration capacity [3]
